The values below come from patent US20240033259A1, “COMPOSITIONS AND METHODS FOR TREATING OR PREVENTING DISEASE ASSOCIATED WITH BETA CORONAVIRUS INFECTION” (priority 2020, published 2024).

Data set [1] concerns SARS-CoV-2. In words: microbe, parasite or virus in culture. Type of data set: cell-based.
Data set [2] deals with SARS-CoV-2. Briefly: microbe, parasite or virus in culture. Type of data set: cell-based. The conditions noted are these: Severe acute respiratory syndrome coronavirus 2, Vero C1008, 96 h.
A short description of a further data set: in vitro. Conditions: African green monkey.
Setting [3] is: CPE assay, percent cell protection, moi 0.05, 4 days, read-out: EC50.
The mark [4] stands for this setting: Severe acute respiratory syndrome coronavirus 2, Vero C1008, Table 2, naproxen/ketotifen experiment.
Where [5] appears, read: Table 2, column 50 μM (head: Concentration Naproxen).

Each structure is given as a SMILES string. Where two headings read alike, the source gives them in different places. Where only a bound is given, the exact number is not on record here.

As usually defined, the EC50 is the midpoint of the concentration-response curve. For orientation: inhibition means the relative decrease from the control value, in per cent. With `COc1ccc2c(c1)c(CC(=O)O)c(C)n2C(=O)c1ccc(Cl)cc1` [Indomethacin, 2-{1-[(4-Chlorophenyl)-carbonyl]-5-methoxy-2-methyl-1H-indol-3-yl}acetic acid], in the data set on SARS-CoV-2 [1], the “inhibition of SARS-CoV-2 / viral yield (in words)” value is given as “inhibited SARS-CoV-2”. Besides, the concentration giving a half-maximal response (EC50) was 100 µM with SARS-CoV-2 [1] (Severe acute respiratory syndrome coronavirus 2, Vero C1008, Table 4, indomethacin titrated, alone or with fixed ketotifen) and more than 400 µM in the data set with SARS-CoV-2 [2] (setting [3]). The inhibition at 25 µM with SARS-CoV-2 [1] (Severe acute respiratory syndrome coronavirus 2, Vero C1008, Table 4, Concentration Indomethacin 25 μM, read-out: percentage inhibition of SARS-CoV-2) is 0%. Besides, the inhibition at 50 µM in the data set with SARS-CoV-2 [1] (Severe acute respiratory syndrome coronavirus 2, Vero C1008, Table 4, Concentration Indomethacin 50 μM, read-out: percentage inhibition of SARS-CoV-2) amounted to 0%. In addition, the inhibition at 100 µM with SARS-CoV-2 [1] (Severe acute respiratory syndrome coronavirus 2, Vero C1008, Table 4, Concentration Indomethacin 100 μM, read-out: percentage inhibition of SARS-CoV-2) was found to be 50%. For the same compound, the Percentage viability in the data set with Vero E6 cells (concentration 0.39 μM) is reported as 98%; with Vero E6 cells (concentration 0.78 μM), 106%; in the data set on Vero E6 cells (concentration 1.56 μM), 111%; with Vero E6 cells (concentration 3.13 μM), 117%; with Vero E6 cells (concentration 6.25 μM) it was 124%; with Vero E6 cells (concentration 12.5 μM), 124%. For the same compound, the Percentage viability in the data set on Vero E6 cells (concentration 25 μM) is on record as 125%; in the data set with Vero E6 cells (concentration 50 μM) it was 143%; in the data set on Vero E6 cells (concentration 100 μM), 143%. Further, in “in vitro”, the CC50 was more than 400 µM.

For `CN1CCC(=C2c3ccccc3CC(=O)c3sccc32)CC1` [Ketotifen], the “inhibition of SARS-CoV-2 / viral yield (in words)” value in the data set on SARS-CoV-2 [1] was “inhibited SARS-CoV-2”. In addition, the EC50 in the data set on SARS-CoV-2 [1] (setting [4]) is 48.9 µM; in the data set with SARS-CoV-2 [1] (Severe acute respiratory syndrome coronavirus 2, Vero C1008, Table 3, ketotifen titrated, alone or with fixed indomethacin), 47.1 µM; with SARS-CoV-2 [2] it was more than 139 µM. For the same compound, the inhibition at 6.25 µM with SARS-CoV-2 [1] (Severe acute respiratory syndrome coronavirus 2, Vero C1008, Table 3, Concentration Ketotifen 6.25 μM, read-out: percentage inhibition of SARS-CoV-2) amounted to 0%. Besides, the inhibition at 12.5 µM in the data set with SARS-CoV-2 [1] (Severe acute respiratory syndrome coronavirus 2, Vero C1008, Table 3, Concentration Ketotifen 12.5 μM, read-out: percentage inhibition of SARS-CoV-2) worked out at 0%. Also, in the data set with SARS-CoV-2 [1] (Severe acute respiratory syndrome coronavirus 2, Vero C1008, Table 3, Concentration Ketotifen 25 μM, read-out: percentage inhibition of SARS-CoV-2), the inhibition at 25 µM turned out to be 0%. Moreover, in the data set on SARS-CoV-2 [1] (Severe acute respiratory syndrome coronavirus 2, Vero C1008, Table 3, Concentration Ketotifen 50 μM, read-out: percentage inhibition of SARS-CoV-2), the inhibition at 50 µM was 60%. Moreover, in the data set with SARS-CoV-2 [1] (setting [5]), the “percentage inhibition of SARS-CoV-2” value stood at 68%. Also, the Percentage viability came to 110% in the data set with Vero E6 cells (concentration 0.20 μM); 103% in the data set with Vero E6 cells (concentration 0.39 μM); 101% with Vero E6 cells (concentration 0.78 μM); 109% in the data set with Vero E6 cells (concentration 1.56 μM); 121% in the data set with Vero E6 cells (concentration 3.13 μM); 125% in the data set with Vero E6 cells (concentration 6.25 μM). Also, the Percentage viability in the data set with Vero E6 cells (concentration 12.5 μM) is given as 122%; in the data set with Vero E6 cells (concentration 25 μM), 104%; in the data set on Vero E6 cells (concentration 50 μM), 86%. Also, in “in vitro”, the CC50 turned out to be 139 µM.

As for `COc1ccc2cc(C(C)C(=O)O)ccc2c1` (stereo not drawn) [Naproxen, 6-methoxy-α-methyl-2-naphthaleneacetic acid], the half-maximal effective concentration (EC50) in the data set on SARS-CoV-2 [1] (setting [4]) was more than 100 µM; in the data set on SARS-CoV-2 [2] (setting [3]), more than 400 µM. Besides, the “percentage inhibition of SARS-CoV-2” value turned out to be 0% with SARS-CoV-2 [1] (Table 2, column 6.25 μM (head: Concentration Naproxen)); 21% in the data set on SARS-CoV-2 [1] (Table 2, column 12.5 μM (head: Concentration Naproxen)); 0% in the data set with SARS-CoV-2 [1] (Table 2, column 25 μM (head: Concentration Naproxen)); 0% in the data set on SARS-CoV-2 [1] (setting [5]); 0% with SARS-CoV-2 [1] (Table 2, column 100 μM (head: Concentration Naproxen)).

Take `CCC(CC)COC(=O)[C@H](C)N[P@](=O)(OC[C@H]1O[C@@](C#N)(c2ccc3c(N)ncnn23)[C@H](O)[C@@H]1O)Oc1ccccc1` [Remdesivir]: the EC50 with SARS-CoV-2 [2] is 2.9 µM.
